Reference: patent US5358946A, “Heterocycle-substituted amides, carbamates and ureas as agents for the treatment of atherosclerosis” (The Du Pont Merck Pharmaceutical Company, priority 1992, dated 1994)

The compounds below were run against T1, ACAT (Mus musculus, UniProt Q61263) (assay: Inhibition of cholesterol esterification in the murine macrophage-like cell line J774.A1). Settings: J774.A1 cells, ac-LDL loaded, 14C-oleic acid pulse.
T1 construct: endogenous in cells; host or cells: J774.A1 (murine macrophage-like)
T1 sequence (Q61263 1-540): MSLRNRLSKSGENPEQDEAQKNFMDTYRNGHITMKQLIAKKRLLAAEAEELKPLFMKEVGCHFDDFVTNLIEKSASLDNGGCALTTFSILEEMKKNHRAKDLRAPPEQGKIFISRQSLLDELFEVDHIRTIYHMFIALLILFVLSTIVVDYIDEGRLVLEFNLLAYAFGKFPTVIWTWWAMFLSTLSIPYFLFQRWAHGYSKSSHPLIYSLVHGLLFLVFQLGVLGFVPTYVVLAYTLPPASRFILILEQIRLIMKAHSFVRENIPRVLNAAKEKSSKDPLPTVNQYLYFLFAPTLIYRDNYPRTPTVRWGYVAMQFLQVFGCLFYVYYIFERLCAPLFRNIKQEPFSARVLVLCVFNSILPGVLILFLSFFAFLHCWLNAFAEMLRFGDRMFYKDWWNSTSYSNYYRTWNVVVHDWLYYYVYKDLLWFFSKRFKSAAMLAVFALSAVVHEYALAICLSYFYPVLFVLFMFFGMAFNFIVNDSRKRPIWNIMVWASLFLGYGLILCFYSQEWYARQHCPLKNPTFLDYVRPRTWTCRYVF
Assay type: cell-based
Experimental: The esterification of cholesterol was determined in the murine macrophage-like cell line J774.A1. Cells were seeded in 35 mm wells at a density of 300,000 cells per well in 2 mls of Dulbecco's Eagle Medium (DMEM) supplemented with 10% fetal bovine serum (FBS). Cells were incubated at 37° C. in an atmosphere of 5% CO2 and 93% humidity. After […] the media was changed to 0.68 mls 10% FBS-DMEM containing 34 μg of acetylated human low density lipoprotein (ac-LDL) to increase the intracellular concentration of cholesterol and promote esterification. At 41 hours, various inhibitors were added to the cells in DMSO (10 μl/ml maximum). At 43 hours, the cells were pulsed with 0.1 mM ^14 C-oleic acid (10,000 dpm/nmol) complexed with BSA (bovine serum albumin) to follow cholesterol ester formation. The experiment was terminated at 45 hours by washing the monolayers 3 times with 3 ml of Tris-buffered saline at 4° C. The lipids were extracted by incubating the monolayers with 1.5 ml of hexane: isopropanol (3:2, v/v) for 30 min. under gentle agitation. During this period, 10,000 dpm ^3 H-cholesterol oleate and 10 μg of unlabeled cholesteryl oleate, oleic acid, triolein and cholesterol were added as an […] standard and carriers. The organic solvent was removed and the cells were washed with an additional 1.0 ml of hexane: isopropanol which was combined with the original extract. The cells were allowed to dry overnight, digested with 2.0 ml of 0.2N sodium hydroxide for 1 hour and an aliquot of the solubilized protein used for protein determination using the Lowry method. […] Extracts were collected in scintillation vials to determine the amount of radioactivity. The conversion of oleic acid to cholesteryl ester in the control averaged 0.54 mmol/hour/mg protein and was increased upon the addition of ac-LDL to about 10.689±0.69 mmol/hour/mg protein.

Structure (SMILES) | IC50 [nM]
CCOCCOCCN(CCCCCSc1nc(-c2ccccc2)c(-c2ccccc2)[nH]1)C(=O)Nc1ccc(F)cc1F [Example 321] | 4010
COc1ccc(-c2nc(SCCCCCN(CCOCCO)C(=O)NC(C)C)[nH]c2-c2ccc(OC)cc2)cc1 [Example 284] | 2420
CCCCCCCN(CCN(C)CCSc1nc(-c2ccccc2)c(-c2ccccc2)[nH]1)C(=O)Nc1ccc(F)cc1F [Example 101, N'-(2,4-difluorophenyl)-N-[2-[2-(4,5-diphenyl-1H-imidazol-2-ylthio)ethyl]-N-[methylamino]ethyl]-N-heptyl-urea] | 1470
CCCCCCCN(CCOC(=O)CSc1nc(-c2ccc(OC)cc2)c(-c2ccc(OC)cc2)[nH]1)C(=O)Nc1ccc(F)cc1F [Example 422, N-[2-[2-(4,5-bis(4-methoxyphenyl)-1H-imidazol-2-ylthio)-acetoxy]-ethyl]-N'-(2,4-diflurophenyl)-N -heptyl-urea] | 2390
CCCCCCCN(CCOCCSc1nc(-c2ccccc2)c(-c2ccccc2)[nH]1)C(=O)Nc1ccc(F)cc1F [Example 361] | 3980
CCOCCOCCN(CCCCCSc1nc(-c2ccccc2)c(-c2ccccc2)[nH]1)C(=O)NC(C)C [Example 322] | 3020
CCCCCCCN(CCOCCSc1nc(-c2ccccc2)c(-c2ccccc2)[nH]1)C(=O)NC(C)C [Example 362] | 990
CCN(CC)CCN(CCCCCSc1nc(-c2ccccc2)c(-c2ccccc2)[nH]1)C(=O)Nc1ccc(F)cc1F [Example 2] | 2180
COCCOCCN(CCCCCSc1nc(-c2ccc(OC)cc2)c(-c2ccc(OC)cc2)[nH]1)C(=O)Nc1ccc(F)cc1F [Example 303, N-[5-[4,5-bis(4-methoxyphenyl)-1H-imidazol-2-ylthio]pentyl]-N '-(2,4-difluorophenyl)-N-[2-(2-methoxyethoxy)ethyl]-urea] | 250
CCOCCOCCN(CCCCCSc1nc(-c2ccc(SC)cc2)c(-c2ccc(SC)cc2)[nH]1)C(=O)NC(C)C [Example 325] | 41
CN(CCSc1nc(-c2ccccc2)c(-c2ccccc2)[nH]1)CCN(CCN1CCOCC1)C(=O)Nc1ccc(F)cc1F [Example 181] | 2740
CCCCCCCN(CCNC(=O)CSc1nc(-c2ccc(OC)cc2)c(-c2ccc(OC)cc2)[nH]1)C(=O)Nc1ccc(F)cc1F [Example 432] | 800
O=C(Nc1ccc(F)cc1F)N(CCCCCSc1nc(-c2ccccc2)c(-c2ccccc2)[nH]1)CCOCCO [Example 281] | 6740
CC(C)NC(=O)N(CCCCCSc1nc(-c2ccccc2)c(-c2ccccc2)[nH]1)CCOCCO [Example 282, N-[5-(4,5-diphenyl-1H-imidazol-2-ylthio)-pentyl]-N-[2-(2-hydroxyethoxy)-ethyl]-N'-(1-methylethyl)-urea] | 6840
CCCN(CCOC(=O)CSc1nc(-c2ccccc2)c(-c2ccccc2)[nH]1)C(=O)Nc1ccc(F)cc1F [Example 421] | 3680
CCCCOCCN(CCCCCSc1nc(-c2ccccc2)c(-c2ccccc2)[nH]1)C(=O)NC(C)C [Example 262, N-(2-butoxyethyl)-N-[5-(4,5-diphenyl-1H-imidazol-2-ylthio)pentyl]-N'-(1-methylethyl)-urea] | 840
COc1ccc(-c2nc(SCCCCCN(CCOCCO)C(=O)Nc3ccc(F)cc3F)[nH]c2-c2ccc(OC)cc2)cc1 [Example 283, N-[5-[4,5-bis(4-methoxyphenyl)-1H-imidazol-2-ylthio]pentyl]-N '-(2,4-difluorophenyl)-N-[2-(2-hydroxyethoxy)ethyl]-urea] | 840
COc1ccc(-c2nc(SCCCCCN(CCN3CCOCC3)C(=O)Nc3ccc(F)cc3F)[nH]c2-c2ccc(OC)cc2)cc1 [Example 162, N-[5-[4,5-bis(4-methoxyphenyl)-1H-imidazol-2-ylthio]pentyl]-N'-(2,4-difluorophenyl)-N-[2-(1-morpholinyl)ethyl]-urea] | 1340
CCCCCCCN(CCN(C)CCSc1nc(-c2ccccc2)c(-c2ccccc2)[nH]1)C(=O)NC(C)C [Example 102] | 2400
CCN(CC)CCN(CCCCCSc1nc(-c2ccccc2)c(-c2ccccc2)[nH]1)C(=O)NC(C)C [Example 1, N-[2-(diethylamino)ethyl]-N-[5-(4,5-diphenyl-1H-imidazol-2-ylthio)pentyl]-N'-(1-methylethyl)-urea] | 580
CCCCN(C)CCN(CCOCCSc1nc(-c2ccc(OC)cc2)c(-c2ccc(OC)cc2)[nH]1)C(=O)Nc1ccc(F)cc1F [Example 32, N-[2-(2-(4,5-bis(4-methoxyphenyl)-1H-imidazol-2-ylthio)ethoxy)ethyl]-N-[2-(N-butyl-N-methylamino)ethyl]-N'-(2,4-difluorophenyl) urea] | 630
COCCOCCN(CCCCCSc1nc(-c2ccc(OC)cc2)c(-c2ccc(OC)cc2)[nH]1)C(=O)NC(C)C [Example 304, N-[5-[4,5-bis(4-methoxyphenyl)-1H-imidazol-2-ylthio]-pentyl]-N-[2-(2-methoxyethoxy)-ethyl]-N'-(1-methylethyl)-urea] | 360
CCCCCCCN(CCOCCSc1nc(-c2ccc(OC)cc2)c(-c2ccc(OC)cc2)[nH]1)C(=O)Nc1ccc(F)cc1F [Example 364] | 500
CC(C)NC(=O)N(CCN(C)CCSc1nc(-c2ccccc2)c(-c2ccccc2)[nH]1)CCN1CCOCC1 [Example 183] | 6280
CCCCOCCN(CCCCCSc1nc(-c2ccccc2)c(-c2ccccc2)[nH]1)C(=O)Nc1ccc(F)cc1F [Example 261, N-(2-butoxyethyl)-N'-(2,4-difluorophenyl)-N-[5-(4,5-diphenyl-1H-imidazol-2-ylthio)pentyl]-urea] | 1750

The compounds below were run against T2, acyl-CoA: cholesterol acyltransferase (ACAT) (Rattus norvegicus, UniProt Q7TQM4) (assay: Inhibition of Acyl-CoA: Cholesterol Acyltransferase (ACAT) in hepatic microsomes (in vitro hepatic ACAT activity)). Settings: 14C-oleoyl-CoA, 15 min preincubation at 37° C., pH 7.4, read-out: Inhibition of Cholesterol Esterification (IC50).
T2 construct: Microsomes were obtained by differential centrifugation; from tissue; host or cells: liver microsomes of male Sprague Dawley rats
T2 sequence (Q7TQM4 1-524): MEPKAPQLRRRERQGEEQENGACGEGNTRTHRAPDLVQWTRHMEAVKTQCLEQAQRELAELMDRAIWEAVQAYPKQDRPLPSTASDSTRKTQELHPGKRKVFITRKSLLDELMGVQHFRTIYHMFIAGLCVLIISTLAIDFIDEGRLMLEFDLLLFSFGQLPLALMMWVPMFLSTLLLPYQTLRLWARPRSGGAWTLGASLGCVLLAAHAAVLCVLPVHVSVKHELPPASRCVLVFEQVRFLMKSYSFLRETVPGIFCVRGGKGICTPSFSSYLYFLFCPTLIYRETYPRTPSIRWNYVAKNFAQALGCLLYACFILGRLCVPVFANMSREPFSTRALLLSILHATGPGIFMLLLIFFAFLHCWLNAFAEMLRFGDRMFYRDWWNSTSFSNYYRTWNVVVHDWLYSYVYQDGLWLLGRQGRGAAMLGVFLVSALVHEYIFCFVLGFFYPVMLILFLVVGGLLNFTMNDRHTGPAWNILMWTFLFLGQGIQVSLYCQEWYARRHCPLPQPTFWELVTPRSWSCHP
Assay type: biochemical, rat (male Sprague Dawley)
Experimental: The ability of the compounds to inhibit ACAT, the enzyme responsible for the intracellular synthesis of cholesteryl esters, was tested as follows. Male Sprague Dawley rats weighing 150-300 g, were fed rat chow ad libitum. The animals were fasted for twenty-four hours prior to being sacrificed by decapitation. The livers were perfused in situ with 50 ml of cold 0.25M sucrose, excised, and homogenized in three volumes of 0.1M phosphate buffer, pH 7.4, that contained 0.5 mM EDTA (ethylenediaminetetraacetic acid), 1.0 mM glutathione, 0.25M sucrose and […]. Microsomes were obtained by differential centrifugation; the supernatant from an initial spin at 15,000×g for 15 minutes was centrifuged at 105,000×g for 1 hour to pellet the microsomes. The microsomes were suspended in homogenization buffer, reisolated by centrifugation, and stored at -70° C. Microsomes were used within one month of preparation.
The control assay in a final volume of 200 μl consisted of 200 μg of microsomal protein, 75μ<^14 C-oleoyl-CoA (10,000 dpm/nmol) in 0.1M phosphate, pH 7.4, that contained 1 mM glutathione. Compounds were added in 5 μl of DMSO (dimethyl sulfoxide) and additional controls were run with DMSO only. All components, except the oleoyl-CoA, were preincubated for 15 min. at 37° C. prior to the initiation of the reaction by the addition of oleoyl-CoA. The assay was terminated after 10 min. by the addition of 4 ml of chloroform:methanol (2:1, v/v). 20,000 dpm of 3H-choledsteryl oleate and 10 μg of unlabeled cholesteryl oleate and oleic acid were added as an internal standard and carriers, respectively. After allowing 10 min. for lipid extraction, 0.8 ml of deionized water was added to separte the solution into two phases. The lower chloroform phase was collected, dried under nitrogen and resuspended in 2 ml of hexane:diethyl ether (97:3 v/v). The lipids were then loaded onto BAKERSBOND spe* silica gel columns. Extracts were collected in scintillation vials and counted for radioactivity. The specific activity of ACAT in the control incubation averaged 260 pmol/min/mg microsomal protein.

Structure (SMILES) | IC50 [nM]
COc1ccc(-c2nc(SCCCCCN(CCOCCO)C(=O)NC(C)C)[nH]c2-c2ccc(OC)cc2)cc1 [Example 284] | 480
CCCCCCCN(CCOC(=O)CSc1nc(-c2ccc(OC)cc2)c(-c2ccc(OC)cc2)[nH]1)C(=O)Nc1ccc(F)cc1F [Example 422, N-[2-[2-(4,5-bis(4-methoxyphenyl)-1H-imidazol-2-ylthio)-acetoxy]-ethyl]-N'-(2,4-diflurophenyl)-N -heptyl-urea] | 2600
CCCCCCCN(CCNC(=O)CSc1nc(-c2ccc(OC)cc2)c(-c2ccc(OC)cc2)[nH]1)C(=O)Nc1ccc(F)cc1F [Example 432] | 3750
CCCN(CCOC(=O)CSc1nc(-c2ccccc2)c(-c2ccccc2)[nH]1)C(=O)Nc1ccc(F)cc1F [Example 421] | 4100
CCCCN(C)CCN(CCOCCSc1nc(-c2ccc(OC)cc2)c(-c2ccc(OC)cc2)[nH]1)C(=O)Nc1ccc(F)cc1F [Example 32, N-[2-(2-(4,5-bis(4-methoxyphenyl)-1H-imidazol-2-ylthio)ethoxy)ethyl]-N-[2-(N-butyl-N-methylamino)ethyl]-N'-(2,4-difluorophenyl) urea] | 1500
